From patent publication US8536351B2, “2-aryl-5-heterocyclyl-cyclohexane-1,3,dione compounds and their use as herbicides” (Syngenta Crop Protection LLC, priority 2007, dated 2013)

Experiments:
Type in all cases: in vivo
[1] = tested on: Alopecurus myosuroides (ALOMY); experiment: Pre-emergence activity, glasshouse pot test (100=total damage to plant; 0=no damage to plant); settings: rate 500 g/ha, evaluated 19, 20 or 21 days after spraying
Method: (§1) Monocotyledonous and dicotyledonous test plants were sown in standard soil in pots. After cultivation for one day (pre-emergence) or after 10 days cultivation (post-emergence) under controlled conditions in a glasshouse, the plants were sprayed with an aqueous spray solution derived from the formulation of the technical active ingredient in 0.6 ml acetone and 45 ml formulation solution containing 10.6% Emulsogen EL (Registry number 61791-12-6), 42.2% N-methyl pyrrolidone, 42.2% dipropylene glycol monomethyl ether (Registry number 34590-94-8) and 0.2% X-77 (Registry number 11097-66-8). The test plants were then grown in a greenhouse under optimum conditions until, 14 or 15 days later for post-emergence and 19, 20 or 21 days for pre-emergence, the test was evaluated (100=total damage to plant; 0=no damage to plant). Alopecurus myosuroides (ALOMY), Avena fatua (AVEFA), Lolium perenne (LOLPE), Setaria faberi (SETFA), Digitaria sanguinalis (DIGSA), Echinochloa crus-galli (ECHCG) Pre-Emergence Activity

Avena fatua (AVEFA) [2] = experiment: as above; settings: rate 500 g/ha, evaluated 19, 20 or 21 days after spraying
Method: as §1

[3] = tested on: Digitaria sanguinalis (DIGSA); experiment: as above; settings: rate 500 g/ha, evaluated 19, 20 or 21 days after spraying
Method: as §1

[4] = tested on: Echinochloa crus-galli (ECHCG); experiment: as above; settings: rate 500 g/ha, evaluated 19, 20 or 21 days after spraying
Method: as §1

Lolium perenne (LOLPE) [5] = experiment: as above; settings: rate 500 g/ha, evaluated 19, 20 or 21 days after spraying
Method: as §1

Setaria faberi (SETFA) [6] = experiment: as above; settings: rate 500 g/ha, evaluated 19, 20 or 21 days after spraying
Method: as §1

[7] = tested on: Alopecurus myosuroides (ALOMY); experiment: Post-emergence activity, glasshouse pot test (100=total damage to plant; 0=no damage to plant); settings: 336 h, rate 500 g/ha, evaluated 14 or 15 days after spraying
Method: as §1, with “Post-Emergence” for “Pre-Emergence”

Avena fatua (AVEFA) [8] = experiment: as above; settings: 336 h, rate 500 g/ha, evaluated 14 or 15 days after spraying
Method: as §1, with “Post-Emergence” for “Pre-Emergence”

[9] = tested on: Digitaria sanguinalis (DIGSA); experiment: as above; settings: rate 500 g/ha, evaluated 14 or 15 days after spraying
Method: as §1, with “Post-Emergence” for “Pre-Emergence”

[10] = tested on: Echinochloa crus-galli (ECHCG); experiment: as above; settings: rate 500 g/ha, evaluated 14 or 15 days after spraying
Method: as §1, with “Post-Emergence” for “Pre-Emergence”

Lolium perenne (LOLPE) [11] = experiment: as above; settings: 336 h, rate 500 g/ha, evaluated 14 or 15 days after spraying
Method: as §1, with “Post-Emergence” for “Pre-Emergence”

Setaria faberi (SETFA) [12] = experiment: as above; settings: rate 500 g/ha, evaluated 14 or 15 days after spraying
Method: as §1, with “Post-Emergence” for “Pre-Emergence”

SMILES	pest or weed control at 500 g/ha [1] [%]	pest or weed control at 500 g/ha (Avena fatua (AVEFA) [2]) [%]	pest or weed control at 500 g/ha [3] [%]	pest or weed control at 500 g/ha [4] [%]	pest or weed control at 500 g/ha (Lolium perenne (LOLPE) [5]) [%]	pest or weed control at 500 g/ha (Setaria faberi (SETFA) [6]) [%]	pest or weed control at 500 g/ha [7] [%]	pest or weed control at 500 g/ha (Avena fatua (AVEFA) [8]) [%]	pest or weed control at 500 g/ha [9] [%]	pest or weed control at 500 g/ha [10] [%]	pest or weed control at 500 g/ha (Lolium perenne (LOLPE) [11]) [%]	pest or weed control at 500 g/ha (Setaria faberi (SETFA) [12]) [%]
CCc1cc(C)cc(CC)c1C1=C(O)CC(C2CCCS(=O)(=O)C2)CC1=O (stereo not drawn) [Compound T19]	100	90	100	100	100	100	80	90	100	100	80	100
CCc1cc(C)cc(CC)c1C1=C(O)CC(C2CCS(=O)(=O)CC2)CC1=O (stereo not drawn) [Compound T20]	100	100	100	100	100	100	80	70	100	100	60	90
